{"source": "patent US20110189199A1", "about": "“METHODS FOR P2RY5 MEDIATED REGULATION OF HAIR GROWTH AND MUTANTS THEREOF” (priority 2008, published 2011)", "key": {"P2RY5 receptor": {"target": "P2RY5 receptor (Homo sapiens, UniProt P43657, DEL128-129/DEL256-257/Q258T)", "sequence (P43657 with tags, fused parts or gaps DEL128-129/DEL256-257/Q258T)": "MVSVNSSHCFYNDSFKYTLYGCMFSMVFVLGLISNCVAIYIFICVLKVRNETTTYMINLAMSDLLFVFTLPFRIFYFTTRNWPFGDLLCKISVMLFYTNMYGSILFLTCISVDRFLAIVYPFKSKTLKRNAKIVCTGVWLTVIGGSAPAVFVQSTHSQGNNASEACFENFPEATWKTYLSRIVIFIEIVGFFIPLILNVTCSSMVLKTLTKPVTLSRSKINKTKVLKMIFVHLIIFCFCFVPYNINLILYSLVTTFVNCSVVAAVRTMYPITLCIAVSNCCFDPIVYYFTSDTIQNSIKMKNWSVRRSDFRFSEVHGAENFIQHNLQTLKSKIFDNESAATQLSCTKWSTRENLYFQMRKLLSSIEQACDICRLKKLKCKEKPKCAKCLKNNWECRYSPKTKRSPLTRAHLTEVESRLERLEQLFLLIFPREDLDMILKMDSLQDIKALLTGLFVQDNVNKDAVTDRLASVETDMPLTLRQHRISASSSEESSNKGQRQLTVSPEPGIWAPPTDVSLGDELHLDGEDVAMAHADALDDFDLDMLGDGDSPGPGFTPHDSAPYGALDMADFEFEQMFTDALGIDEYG", "assay": "Tango P2RY5 U2OS beta-lactamase reporter assay", "type": "cell-based", "description": "The Tango™ P2RY5 U2OS antibiotic selected pool cells were plated at 10,000 cells/well into a 384 well clear bottom assay plate in Freestyle™ media. FBS (Fetal Bovine 20%) or a PMA concentration dilution series (in Freestyle™ media) was then added to the plate at the indicated concentrations. The plate was placed at 37° C. 5% CO2 for 24 hours for receptor stimulation followed by betalactamase substrate loading for 2 hours. (The P2RY5 cells were also tested with a 48 hour stimulation time with equivalent results.)\n(§1) The antibiotic selected Tango™ P2RY5 U2OS cells were cultured to 80-90% confluence in tissueculture flasks. The growth media was then removed and replaced with Freestyle™ media either with (stimulated) or without (un-stimulated) 20% FBS. The cultures were then placed at 37° C. 5% CO2 for 48 hours for receptor stimulation followed by beta-lactamase substrate loading for 2 hours. Responsive cells were then sorted by FACS into a single pool and three 96 well plates of clones.\nThe Tango™ P2RY5 U2OS cells were plated at 10,000 cells/well into a 384 well clear bottom assay plate in Freestyle™ media. FBS was then added to half the wells in the assay to a concentration of 20% (stimulated) while the other half of the assay received an equal volume of Freestyle™ Media (un-stimulated). The plate was placed at 37° C. 5% CO2 for 48 hours for receptor stimulation followed by betalactamase substrate loading for 2 hours.\nas §1, with “selected FACS sorted responsive cell” for “selected”, “U2OS Pool was” for “U2OS cells were”, “in two tissue culture” for “in tissueculture”, “a green cell pool from the un-stimulated cell sample, and into a blue cell” for “a single”, “of clones from the FBS stimulated sample.” for “of clones.”\nThe Tango™ P2RY5 U2OS sorted pool cells were plated at 10,000 cells/well into a 384 well clear bottom assay plate in FreeStyle™ media. The dFBS was immediately added to plate to final concentration of 20% by volume (stimulated). An equal volume of Free Style™ media was added to the un-stimulated wells. The plate was placed at 37° C. 5% CO2 for 48 hrs for receptor stimulation followed by beta-lactamase substrate loading for 2 hours.\nThe Tango™ P2RY5 U2OS sorted pool cells were plated at 10,000 cells/well into a 384 well clear bottom assay plate in FreeStyle™ media. The plate was placed at 37° C. […]"}, "[1]": {"system": "Tango™ P2RY5 U2OS Clone 10F cells", "assay": "Cell death at high PMA concentrations in the Tango P2RY5 assay", "type": "cell-based", "description": "The Tango™ P2RY5 U2OS Clone 10F cells were plated at 10,000 cells/well into a 384 well clear bottom assay plate in 32 μl/well Freestyle™ medium. 4 μl/well 10× DMSO in Freestyle™ medium was then added to the wells of the assay plate to bring the final DMSO concentration in the wells to 0% (no DMSO), 0.1%, 0.5% or 1.0% DMSO. 4 μl/well PMA (10× in Freestyle™ medium) was immediately added to the plate to the indicated concentrations. The plate was placed at 37° C./5% CO2 for 18 hours for receptor stimulation followed by beta-lactamase substrate loading for 2 hours.\nThe Tango™ P2RY5 U2OS Clone 10F cells were plated at 10,000 cells/well into two 384 well clear bottom assay plate in 32 μl/well Freestyle™ medium. One plate was placed at 37° C./5% CO2 for 18 hours prior to PMA stimulation for 5 hours while PMA was immediately added to the other plate for an 18 hours stimulation. At the time of stimulation 4 μl/well of a 10× stock of DMSO in Freestyle™ medium was added to the wells of the assay plate to bring the final DMSO concentration in the wells to 0.1% DMSO. 4 μl/well PMA (10× in Freestyle™ medium) was then added to the plate to the indicated concentrations. The plates were placed at 37° C./5% CO2 for 5 or 18 hours for receptor stimulation followed by beta-lactamase substrate loading for 2 h.\nTango™ P2RY5 U2OS clone 10F cells were cryopreserved at 2.5×10̂6 cells/ml in Recovery™ freezing medium in liquid nitrogen for several days. The cells were thawed into Freestyle™ assay medium prior to use in the assay. The Tango™ P2RY5 U2OS Clone 10F cells were plated at 10,000 cells/well into two 384 well clear bottom assay plate in 32 μl/well Freestyle™ medium. One plate was placed at 37° C./5% CO2 for 18 hours prior to PMA stimulation for 5 hours while PMA was immediately added to the other plate for an 18 hour stimulation. At the time of stimulation 4 μl/well of a 10× stock of DMSO in Freestyle™ medium was added to the wells of the assay plate to bring the final DMSO concentration in the wells to 0.1% DMSO. […]"}}}
{"smiles": "CCCCCCCCCCCCCC(=O)O[C@@H]1[C@@H](C)[C@@]2(O)[C@@H](C=C(CO)C[C@]3(O)C(=O)C(C)=C[C@@H]23)[C@@H]2C(C)(C)[C@]12OC(C)=O", "note": "[PMA]", "values": [{"measurement": "assay window, 5 hour vs 18 hour stimulation time", "setting": "P2RY5 receptor; Clone 10F, 5 hour stimulation, 0.1% DMSO", "result": "larger assay window than the 18 hour stimulation time"}, {"measurement": "response to PMA, cryopreserved vs dividing cells", "setting": "P2RY5 receptor; Clone 10F, cryopreserved cells, 5 or 18 hours stimulation", "result": "slightly less potent response"}, {"measurement": "beta-lactamase response through the P2RY5 receptor", "setting": "P2RY5 receptor; Green sort pool, 5 hours stimulation", "result": "slight inducible beta-lactamase response"}, {"measurement": "beta-lactamase response through the P2RY5 receptor", "setting": "P2RY5 receptor; sorted clones, 18 hours stimulation", "result": "concentration dependant beta-lactamase response"}, {"measurement": "PMA concentrations with cell death in the wells", "setting": "[1]; cryopreserved cells, 18 hours stimulation", "result": "greater than 100 nM"}, {"measurement": "PMA concentrations with cell death in the wells", "setting": "[1]; dividing cells, 5 hour stimulation", "result": "> 1", "unit": "µM"}, {"measurement": "PMA concentrations with cell death in the wells", "setting": "[1]; dividing cells, 18 hour stimulation", "result": "greater than 100 nM"}]}
